Measured values published in patent US10793564B2, “Amino acid compounds and methods of use” (Pliant Therapeutics, Inc., priority 2018, dated 2020).

Target: recombinant human integrin αVβ6 (Homo sapiens (Human), UniProt P06756+P18564)
Experiment: Solid phase integrin αVβ6 binding assay
Details: inhibition of recombinant TGFβ1 LAP binding to coated integrin, IC50 presented in four ranges, read-out: αvβ6 Inhibition IC50 (nM) - range
In short: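 Plates coated with recombinant human αVβ6 (2 μg/mL) and blocked; compounds competed with TGFβ1 LAP (0.67 μg/mL) in Mn2+ (0.5 mM)/BSA/sucrose TBS for 2 h at 25° C. Bound LAP detected by biotin anti-LAP and peroxidase-streptavidin; IC50 by four-parameter logistic fit.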

Sequence of recombinant human integrin αVβ6 (P06756 31-992): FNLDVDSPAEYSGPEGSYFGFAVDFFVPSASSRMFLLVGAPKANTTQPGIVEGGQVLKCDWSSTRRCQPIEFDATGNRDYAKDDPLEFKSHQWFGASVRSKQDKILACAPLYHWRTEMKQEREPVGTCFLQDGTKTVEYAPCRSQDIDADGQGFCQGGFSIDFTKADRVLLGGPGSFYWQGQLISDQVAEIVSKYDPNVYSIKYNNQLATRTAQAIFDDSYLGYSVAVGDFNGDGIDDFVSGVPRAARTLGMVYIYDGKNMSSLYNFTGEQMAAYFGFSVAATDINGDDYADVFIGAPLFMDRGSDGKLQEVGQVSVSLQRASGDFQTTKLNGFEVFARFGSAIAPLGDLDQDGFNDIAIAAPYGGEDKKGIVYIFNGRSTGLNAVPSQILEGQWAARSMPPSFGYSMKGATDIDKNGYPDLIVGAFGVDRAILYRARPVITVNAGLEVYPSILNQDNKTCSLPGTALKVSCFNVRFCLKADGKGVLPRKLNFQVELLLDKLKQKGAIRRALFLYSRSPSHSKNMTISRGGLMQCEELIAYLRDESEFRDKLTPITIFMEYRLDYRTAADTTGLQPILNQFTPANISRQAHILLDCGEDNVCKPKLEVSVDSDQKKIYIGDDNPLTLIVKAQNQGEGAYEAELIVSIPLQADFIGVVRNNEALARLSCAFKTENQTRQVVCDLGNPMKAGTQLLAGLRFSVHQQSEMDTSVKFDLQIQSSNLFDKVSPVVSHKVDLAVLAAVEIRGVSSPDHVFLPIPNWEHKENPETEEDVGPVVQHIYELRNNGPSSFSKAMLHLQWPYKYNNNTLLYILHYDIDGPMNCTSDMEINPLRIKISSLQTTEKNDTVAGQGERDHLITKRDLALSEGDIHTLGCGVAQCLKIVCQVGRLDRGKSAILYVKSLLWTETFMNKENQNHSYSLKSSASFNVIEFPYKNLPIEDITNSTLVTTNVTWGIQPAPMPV
Sequence of recombinant human integrin αVβ6 (P18564 22-707): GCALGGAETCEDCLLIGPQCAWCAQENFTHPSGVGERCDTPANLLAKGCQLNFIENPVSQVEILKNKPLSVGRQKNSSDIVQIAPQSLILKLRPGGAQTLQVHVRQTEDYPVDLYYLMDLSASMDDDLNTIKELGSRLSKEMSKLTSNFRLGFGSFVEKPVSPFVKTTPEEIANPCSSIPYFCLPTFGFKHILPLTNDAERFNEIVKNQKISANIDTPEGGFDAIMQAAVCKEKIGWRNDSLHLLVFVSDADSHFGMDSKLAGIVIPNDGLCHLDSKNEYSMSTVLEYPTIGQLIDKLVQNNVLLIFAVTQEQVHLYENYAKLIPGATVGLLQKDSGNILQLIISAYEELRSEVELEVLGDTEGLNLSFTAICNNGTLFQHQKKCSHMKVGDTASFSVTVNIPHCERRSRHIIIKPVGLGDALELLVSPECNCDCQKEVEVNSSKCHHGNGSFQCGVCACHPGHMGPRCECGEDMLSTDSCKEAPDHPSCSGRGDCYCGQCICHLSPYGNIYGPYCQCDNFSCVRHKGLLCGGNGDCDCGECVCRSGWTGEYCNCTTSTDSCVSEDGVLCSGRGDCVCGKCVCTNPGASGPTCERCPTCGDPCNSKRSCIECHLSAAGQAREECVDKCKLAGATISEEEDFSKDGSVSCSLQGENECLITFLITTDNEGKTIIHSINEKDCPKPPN

SMILES	IC50 [nM]
O=C(O)[C@H](CCN(CCCCc1ccc2c(n1)NCCC2)CC(F)F)Nc1nc(-c2cccnc2)nc2ccccc12 [Compound 99, (S)-4-((2,2-difluoroethyl) (4-(5,6,7,8-tetrahydro-1,8-naphthyridin-2-yl)butyl)amino)-2-((2-(pyridin-3-yl)quinazolin-4-yl)amino) butanoic Acid]	250 to 1000
CS(=O)(=O)CCN(CCCCc1ccc2c(n1)NCCC2)CC[C@H](Nc1ncc(C(F)(F)F)cn1)C(=O)O [Compound 102, (S)-4-((2-(methylsulfonyl)ethyl) (4-(5,6,7,8-tetrahydro-1,8-naphthyridin-2-yl)butyl)amino)-2-((5-(trifluoromethyl)pyrimidin-2-yl)amino) butanoic Acid]	> 1000
CS(=O)(=O)CCN(CCCCc1ccc2c(n1)NCCC2)CC[C@H](Nc1ncc(Br)cn1)C(=O)O [Compound 103, (S)-2-((5-bromopyrimidin-2-yl)amino)-4-((2-(methylsulfonyl)ethyl) (4-(5,6,7,8-tetrahydro-1,8-naphthyridin-2-yl)butyl)amino) butanoic Acid]	> 1000
CS(=O)(=O)CCN(CCCCc1ccc2c(n1)NCCC2)CC[C@H](Nc1ccnc(C(F)(F)F)n1)C(=O)O [Compound 104, (S)-4-((2-(methylsulfonyl)ethyl) (4-(5,6,7,8-tetrahydro-1,8-naphthyridin-2-yl)butyl)amino)-2-((2-(trifluoromethyl)pyrimidin-4-yl)amino) butanoic Acid]	> 1000
CS(=O)(=O)CCN(CCCCc1ccc2c(n1)NCCC2)CC[C@H](Nc1nc(-c2cccnc2)nc2ccccc12)C(=O)O [Compound 107, (S)-4-((2-(methylsulfonyl)ethyl) (4-(5,6,7,8-tetrahydro-1,8-naphthyridin-2-yl)butyl)amino)-2-((2-(pyridin-3-yl)quinazolin-4-yl)amino) butanoic Acid]	250 to 1000
COC[C@@H](F)CN(CCCCc1ccc2c(n1)NCCC2)CC[C@H](Nc1cc(-n2cccn2)ncn1)C(=O)O [Compound 108, (S)-2-((6-(1H-pyrazol-1-yl)pyrimidin-4-yl)amino)-4-(((S)-2-fluoro-3-methoxypropyl) (4-(5,6,7,8-tetrahydro-1,8-naphthyridin-2-yl)butyl)amino) butanoic Acid]	> 1000
O=C(O)[C@H](CCN(CCCCc1ccc2c(n1)NCCC2)CC(F)F)Nc1ncnc2[nH]ncc12 [Compound 112, (S)-2-((1H-pyrazolo[3,4-d]pyrimidin-4-yl)amino)-4-((2,2-difluoroethyl) (4-(5,6,7,8-tetrahydro-1,8-naphthyridin-2-yl)butyl)amino) butanoic Acid]	250 to 1000
N#Cc1cnc(N[C@@H](CCN(CCCCc2ccc3c(n2)NCCC3)CC(F)F)C(=O)O)nc1 [Compound 118, (S)-2-((5-cyanopyrimidin-2-yl)amino)-4-((2,2-difluoroethyl) (4-(5,6,7,8-tetrahydro-1,8-naphthyridin-2-yl)butyl)amino) butanoic Acid]	> 1000
O=C(O)[C@H](CCN(CCCCc1ccc2c(n1)NCCC2)CC(F)F)Nc1ncncc1-c1ccccc1 [Compound 119, (S)-4-((2,2-difluoroethyl) (4-(5,6,7,8-tetrahydro-1,8-naphthyridin-2-yl)butyl)amino)-2-((5-phenylpyrimidin-4-yl)amino) butanoic Acid]	> 1000
O=C(O)[C@H](CCN(CCCCc1ccc2c(n1)NCCC2)CC(F)F)Nc1ccncn1 [Compound 120, (S)-4-((2,2-difluoroethyl) (4-(5,6,7,8-tetrahydro-1,8-naphthyridin-2-yl)butyl)amino)-2-(pyrimidin-4-ylamino) butanoic Acid]	> 1000
O=C(O)[C@H](CCN(CCCCc1ccc2c(n1)NCCC2)CC(F)F)Nc1ncc(F)cn1 [Compound 121, (S)-4-((2,2-difluoroethyl) (4-(5,6,7,8-tetrahydro-1,8-naphthyridin-2-yl)butyl)amino)-2-((5-fluoropyrimidin-2-yl)amino) butanoic Acid]	> 1000
Cc1cc(N[C@@H](CCN(CCCCc2ccc3c(n2)NCCC3)CC(F)F)C(=O)O)nc(-c2ccncc2)n1 [Compound 122, (S)-4-((2,2-difluoroethyl) (4-(5,6,7,8-tetrahydro-1,8-naphthyridin-2-yl)butyl)amino)-2-((6-methyl-2-(pyridin-4-yl)pyrimidin-4-yl)amino) butanoic Acid]	250 to 1000
CS(=O)(=O)CCN(CCCCc1ccc2c(n1)NCCC2)CC[C@H](Nc1ncnc2[nH]ncc12)C(=O)O [Compound 125, (S)-2-((1H-pyrazolo[3,4-d]pyrimidin-4-yl)amino)-4-((2-(methylsulfonyl)ethyl) (4-(5,6,7,8-tetrahydro-1,8-naphthyridin-2-yl)butyl)amino) butanoic Acid]	50 to 250
CS(=O)(=O)CCN(CCCCc1ccc2c(n1)NCCC2)CC[C@H](Nc1cc(-n2cccn2)ncn1)C(=O)O [Compound 126, (S)-2-((6-(1H-pyrazol-1-yl)pyrimidin-4-yl)amino)-4-((2-(methylsulfonyl)ethyl) (4-(5,6,7,8-tetrahydro-1,8-naphthyridin-2-yl)butyl)amino) butanoic Acid]	> 1000
COC[C@@H](F)CN(CCCCc1ccc2c(n1)NCCC2)CC[C@H](Nc1cc(-c2ccccc2)ncn1)C(=O)O [Compound 128, (S)-4-(((S)-2-fluoro-3-methoxypropyl) (4-(5,6,7,8-tetrahydro-1,8-naphthyridin-2-yl)butyl)amino)-2-((6-phenylpyrimidin-4-yl)amino) butanoic Acid]	> 1000

Other lines, results leading:

IC50 [nM]	SMILES
< 50	CO[C@H](C)CN(CCCCc1ccc2c(n1)NCCC2)CC[C@H](Nc1nc(-c2cccnc2)nc2ccccc12)C(=O)O [Compound 100, (S)-4-(((R)-2-methoxypropyl) (4-(5,6,7,8-tetrahydro-1,8-naphthyridin-2-yl)butyl)amino)-2-((2-(pyridin-3-yl)quinazolin-4-yl)amino) butanoic Acid]
< 50	COC[C@@H](F)CN(CCCCc1ccc2c(n1)NCCC2)CC[C@H](Nc1ncnc2c1cnn2C)C(=O)O [Compound 105, (S)-4-(((S)-2-fluoro-3-methoxypropyl) (4-(5,6,7,8-tetrahydro-1,8-naphthyridin-2-yl)butyl)amino)-2-((1-methyl-1H-pyrazolo[3,4-d]pyrimidin-4-yl)amino) butanoic Acid]
< 50	CO[C@H](C)CN(CCCCc1ccc2c(n1)NCCC2)CC[C@H](Nc1ccncn1)C(=O)O [Compound 106, (S)-4-(((R)-2-methoxypropyl) (4-(5,6,7,8-tetrahydro-1,8-naphthyridin-2-yl)butyl)amino)-2-(pyrimidin-4-ylamino) butanoic Acid]
< 50	COC[C@@H](F)CN(CCCCc1ccc2c(n1)NCCC2)CC[C@H](Nc1nc(-c2cccnc2)nc2ccccc12)C(=O)O [Compound 109, (S)-4-(((S)-2-fluoro-3-methoxypropyl) (4-(5,6,7,8-tetrahydro-1,8-naphthyridin-2-yl)butyl)amino)-2-((2-(pyridin-3-yl)quinazolin-4-yl)amino) butanoic Acid]
< 50	COC[C@@H](F)CN(CCCCc1ccc2c(n1)NCCC2)CC[C@H](Nc1ncncc1-c1ccccc1)C(=O)O [Compound 110, (S)-4-(((S)-2-fluoro-3-methoxypropyl) (4-(5,6,7,8-tetrahydro-1,8-naphthyridin-2-yl)butyl)amino)-2-((5-phenylpyrimidin-4-yl)amino) butanoic Acid]
< 50	N#Cc1cnc(N[C@@H](CCN(CCCCc2ccc3c(n2)NCCC3)CCOc2ccccc2)C(=O)O)nc1 [Compound 111, (S)-2-((5-cyanopyrimidin-2-yl)amino)-4-((2-phenoxyethyl) (4-(5,6,7,8-tetrahydro-1,8-naphthyridin-2-yl)butyl)amino) butanoic Acid]
< 50	O=C(O)[C@H](CCN(CCCCc1ccc2c(n1)NCCC2)C1CC1)Nc1ncc(C(F)(F)F)cn1 [Compound 114, (S)-4-(cyclopropyl(4-(5,6,7,8-tetrahydro-1,8-naphthyridin-2-yl)butyl)amino)-2-((5-(trifluoromethyl)pyrimidin-2-yl)amino) butanoic Acid]
50 to 250	O=C(O)[C@H](CCN(CCCCc1ccc2c(n1)NCCC2)C1CC1)Nc1ccnc(C(F)(F)F)n1 [Compound 115, (S)-4-(cyclopropyl(4-(5,6,7,8-tetrahydro-1,8-naphthyridin-2-yl)butyl)amino)-2-((2-(trifluoromethyl)pyrimidin-4-yl)amino) butanoic Acid]
50 to 250	O=C(O)[C@H](CCN(CCCCc1ccc2c(n1)NCCC2)C1CC1)Nc1ncnc2[nH]ncc12 [Compound 116, (S)-2-((1H-pyrazolo[3,4-d]pyrimidin-4-yl)amino)-4-(cyclopropyl(4-(5,6,7,8-tetrahydro-1,8-naphthyridin-2-yl)butyl)amino) butanoic Acid]
< 50	O=C(O)[C@H](CCN(CCCCc1ccc2c(n1)NCCC2)CCOc1ccccc1)Nc1ncc(C2CC2)cn1 [Compound 117, (S)-2-((5-cyclopropylpyrimidin-2-yl)amino)-4-((2-phenoxyethyl) (4-(5,6,7,8-tetrahydro-1,8-naphthyridin-2-yl)butyl)amino) butanoic Acid]
< 50	Cn1ncc2c(N[C@@H](CCN(CCCCc3ccc4c(n3)NCCC4)CCOc3ccc(F)cc3)C(=O)O)ncnc21 [Compound 123, (S)-4-((2-(4-fluorophenoxy)ethyl) (4-(5,6,7,8-tetrahydro-1,8-naphthyridin-2-yl)butyl)amino)-2-((1-methyl-1H-pyrazolo[3,4-d]pyrimidin-4-yl)amino) butanoic Acid]
< 50	CO[C@H](C)CN(CCCCc1ccc2c(n1)NCCC2)CC[C@H](Nc1ncc(C2CC2)cn1)C(=O)O [Compound 124, (S)-2-((5-cyclopropylpyrimidin-2-yl)amino)-4-(((R)-2-methoxypropyl) (4-(5,6,7,8-tetrahydro-1,8-naphthyridin-2-yl)butyl)amino) butanoic Acid]
